The results in this text go back to ChEMBL document CHEMBL1147205 (Eur J Med Chem, 2007).

Converted amounts (≈) assume the structure as drawn. The source made the active and inactive calls. No cut-off for these calls is given here.

The conditions of data set [1]: artificial membrane.
Description: Affinity to immobilized artificial membrane by reversed phase HPLC
A short description of data set [2]: physchem. Conditions: phosphate buffer, pH 5.
Description: Solubility in phosphate buffer at pH 5.0
Data set [3] is described as follows: physchem. The following applies: phosphate buffer, pH 7.4.
Description: Solubility in phosphate buffer at pH 7.4
Data set [4] in a line: physchem. The following applies: phosphate buffer, pH 7.5.
Description: Lipophilicity in phosphate buffer at pH 7.5
The subject of data set [5] is Macrophage. The experiment in a line: Effect on rabbit alveolar macrophages assessed as reduction in viability at 50 uM by trypan blue exclusion. It is filed as functional, cell-based. Conditions: Oryctolagus cuniculus.
In data set [6] the test system is Macrophage. The data set is described as follows: Inhibition of SP-A degradation in rabbit alveolar macrophages. The class given is functional, cell-based. The following applies: Oryctolagus cuniculus.

Take `CCCCc1oc2ccccc2c1C(=O)c1cc(I)c(OCCN2CCOCC2)c(I)c1`: the “logD IAM” value in data set [1] turned out to be 3.36. In addition, the solubility in “physchem [2]” came out at 170 µM (≈ 112 µg/mL); in the data set “physchem [3]”, 15 µM (≈ 9.89 µg/mL). Further, the log distribution coefficient (logD) in “physchem [4]” is 6.15.
For the molecule `CCCCc1oc2ccccc2c1C(=O)c1cc(I)c(OCCCN(C)C)c(I)c1`, the outcome in the data set on Macrophage [5] and in the data set with Macrophage [6] was Active. Further, the “logD IAM” value in data set [1] amounted to 3.56. The solubility in the data set “physchem [2]” amounted to 1040 µM (≈ 657 µg/mL); in “physchem [3]”, 212 µM (≈ 134 µg/mL). In “physchem [4]”, this molecule returned a pH-dependent lipophilicity (logD) of 7.98.
`CCCCc1oc2ccccc2c1C(=O)c1cc(I)c(OCCN2CCCC2)c(I)c1`: the result in the data set on Macrophage [5] and in the data set with Macrophage [6] was Active. Further, the “logD IAM” value in data set [1] was 4.23. The solubility in the data set “physchem [2]” came to 1860 µM (≈ 1200 µg/mL); in the data set “physchem [3]” it was 49 µM (≈ 31.5 µg/mL). The same molecule displayed a logD in “physchem [4]” of 7.82.
Take `CCCCc1oc2ccccc2c1C(=O)c1cc(I)c(OCCN(C(C)C)C(C)C)c(I)c1`: the “logD IAM” value in data set [1] came out at 4.58. Also, the solubility in “physchem [2]” stood at 230 µM (≈ 155 µg/mL); in the data set “physchem [3]”, 14 µM (≈ 9.43 µg/mL). The molecule also displayed a logD in the data set “physchem [4]” of 8.74.
For `CCCCc1oc2ccccc2c1C(=O)c1cc(I)c(OCCN(C)C)c(I)c1`, in data set [1], the “logD IAM” value is reported as 3.64. Besides, the results for the solubility in “physchem [2]” and in the data set “physchem [3]” were 2210 µM (≈ 1360 µg/mL) and 51 µM (≈ 31.5 µg/mL), respectively. The pH-dependent lipophilicity (logD) in the data set “physchem [4]” stood at 7.15.
With `CCCCc1oc2ccccc2c1C(=O)c1cc(I)c(OCCN2CCCCC2)c(I)c1`, the result in the data set on Macrophage [6] was Active. Further, in data set [1], the “logD IAM” value turned out to be 4.28. Also, the solubility in the data set “physchem [2]” was 2220 µM (≈ 1460 µg/mL); in “physchem [3]”, 23 µM (≈ 15.1 µg/mL). Further, the log distribution coefficient (logD) in the data set “physchem [4]” was found to be 8.04.
